The record followed here is patent publication US8299048B2, “Hexahydrocyclopentyl[f]indazole sulfonamides and derivatives thereof as selective glucocorticoid receptor modulators” (Merck Sharp & Dohme Corp., priority 2008, dated 2012).

For the assay, the target named is T1, glucocorticoid receptor (Homo sapiens, UniProt P04150).
T1 construct: endogenous in cells
T1 sequence (P04150 1-777): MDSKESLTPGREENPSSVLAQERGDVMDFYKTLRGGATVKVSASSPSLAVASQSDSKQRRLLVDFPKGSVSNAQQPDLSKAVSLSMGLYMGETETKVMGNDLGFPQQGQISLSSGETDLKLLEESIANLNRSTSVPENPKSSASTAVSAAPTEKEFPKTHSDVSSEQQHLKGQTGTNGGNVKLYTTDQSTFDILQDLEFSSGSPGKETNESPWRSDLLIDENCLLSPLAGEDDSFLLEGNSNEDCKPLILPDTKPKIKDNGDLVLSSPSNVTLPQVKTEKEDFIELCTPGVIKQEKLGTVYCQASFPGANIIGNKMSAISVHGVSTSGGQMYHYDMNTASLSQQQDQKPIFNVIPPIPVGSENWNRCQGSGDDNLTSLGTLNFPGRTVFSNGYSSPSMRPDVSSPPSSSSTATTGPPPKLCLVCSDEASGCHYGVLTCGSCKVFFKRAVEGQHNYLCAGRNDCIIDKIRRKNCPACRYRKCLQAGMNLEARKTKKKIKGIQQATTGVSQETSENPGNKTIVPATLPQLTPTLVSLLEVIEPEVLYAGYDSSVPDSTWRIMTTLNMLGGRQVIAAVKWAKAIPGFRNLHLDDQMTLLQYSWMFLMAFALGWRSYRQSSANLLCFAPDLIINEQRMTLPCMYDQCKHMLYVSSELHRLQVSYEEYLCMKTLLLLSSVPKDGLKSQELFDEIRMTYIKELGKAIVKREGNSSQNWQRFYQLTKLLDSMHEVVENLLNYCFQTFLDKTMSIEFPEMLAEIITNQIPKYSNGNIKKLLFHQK
As to the kind of experiment: Ligand binding assay (GR BIND). The procedure, abridged: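 Displacement of tritiated dexamethasone (6 nM trace solution) from receptor in cell supernatant was measured after overnight incubation at 4 °C in molybdate-containing TEGM, pH 7.2, 2% ethanol. Hydroxylapatite pulled down the receptor–ligand complex for filter washing and scintillation counting, with dexamethasone as reference.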

For the molecule `C[C@]12Cc3cnn(-c4ccc(F)cc4)c3C=C1CC[C@@H]2CN(CCc1ccccn1)S(=O)(=O)Cc1cccnc1` [Example 1, N-{[(4αR,5S)-1-(4-Fluorophenyl)-4α-methyl-1,4,4α,5,6,7-hexahydrocyclopenta[f]indazol-5-yl]methyl}-1-pyridin-3-yl-N-(2-pyridin-2-ylethyl)methanesulfonamide], the Ki turned out to be 1.8 nM.
On to `C[C@]12Cc3cnn(-c4ccc(F)cc4)c3C=C1CC[C@@H]2CN(CC1CC1)S(=O)(=O)c1ccccc1F` [Example 2, N-(cyclopropylmethyl)-2-fluoro-N-{[(4αR,5S)-1-(4-fluorophenyl)-4α-methyl-1,4,4α,5,6,7-hexahydrocyclopenta[f]indazol-5-yl]methyl}benzenesulfonamide], for which the Ki is 0.6 nM.
On to `C=CCN(C[C@H]1CCC2=Cc3c(cnn3-c3ccc(F)cc3)C[C@@]21C)S(=O)(=O)c1ccccc1F` [Example 3, N-allyl-2-fluoro-N-{[(4αR,5S)-1-(4-fluorophenyl)-4α-methyl-1,4,4α,5,6,7-hexahydrocyclopenta[f]indazol-5-yl]methyl}benzenesulfonamide], for which the Ki was 0.8 nM.
The molecule `C[C@]12Cc3cnn(-c4ccc(F)cc4)c3C=C1CC[C@@H]2CN(CC1CC1)S(=O)(=O)c1ccccc1C(F)(F)F` [Example 4, N-(cyclopropylmethyl)-N-{[(4αR,5S)-1-(4-fluorophenyl)-4α-methyl-1,4,4α,5,6,7-hexahydrocyclopenta[f]indazol-5-yl]methyl}-2-(trifluoromethyl)benzenesulfonamide] displayed a Ki of 2.2 nM. Against the preceding molecule, the Ki is about 2.8-fold higher.
The value for `C[C@]12Cc3cnn(-c4ccc(F)cc4)c3C=C1CC[C@@H]2CN(CCO)S(=O)(=O)Cc1cccc(C(F)(F)F)c1` [Example 63, N-{[(4αR,5S)-1-(4-fluorophenyl)-4α-methyl-1,4,4α,5,6,7-hexahydrocyclopenta[f]indazol-5-yl]methyl}-N-(2-hydroxyethyl)-1-[3-(trifluoromethyl)phenyl]methanesulfonamide] was 9.1 nM; that for `Cc1ccc(S(=O)(=O)N(CCO)C[C@H]2CCC3=Cc4c(cnn4-c4ccc(F)cc4)C[C@@]32C)s1` [Example 64, N-{[(4αR,5S)-1-(4-fluorophenyl)-4α-methyl-1,4,4α,5,6,7-hexahydrocyclopenta[f]indazol-5-yl]methyl}-N-(2-hydroxyethyl)-5-methylthiophene-2-sulfonamide] was 3 nM.
The value for `Cn1cc(S(=O)(=O)N(CCO)C[C@H]2CCC3=Cc4c(cnn4-c4ccc(F)cc4)C[C@@]32C)c(C(F)(F)F)n1` [Example 65, N-{[(4αR,5S)-1-(4-fluorophenyl)-4α-methyl-1,4,4α,5,6,7-hexahydrocyclopenta[f]indazol-5-yl]methyl}-N-(2-hydroxyethyl)-1-methyl-3-(trifluoromethyl)-1H-pyrazole-4-sulfonamide] was 2.7 nM; that for `Cc1cc(S(=O)(=O)N(CCO)C[C@H]2CCC3=Cc4c(cnn4-c4ccc(F)cc4)C[C@@]32C)c(C)o1` [Example 66, N-{[(4αR,5S)-1-(4-fluorophenyl)-4α-methyl-1,4,4α,5,6,7-hexahydrocyclopenta[f]indazol-5-yl]methyl}-N-(2-hydroxyethyl)-2,5-dimethylfuran-3-sulfonamide] was 7.9 nM; that for `Cn1nc(C(F)(F)F)cc1-c1ccc(S(=O)(=O)N(CCO)C[C@H]2CCC3=Cc4c(cnn4-c4ccc(F)cc4)C[C@@]32C)s1` [Example 67, N-{[(4αR,5S)-1-(4-fluorophenyl)-4α-methyl-1,4,4α,5,6,7-hexahydrocyclopenta[f]indazol-5-yl]methyl}-N-(2-hydroxyethyl)-5-[1-methyl-3-(trifluoromethyl)-1H-pyrazole-5-yl]thiophene-2-sulfonamide] was 13.4 nM.
The result for `C[C@]12Cc3cnn(-c4ccc(F)cc4)c3C=C1CC[C@@H]2CN(CCO)S(=O)(=O)c1cccc(C#N)c1` [Example 68, 3-cyano-N-{[(4αR,5S)-1-(4-fluorophenyl)-4α-methyl-1,4,4α,5,6,7-hexahydrocyclopenta[f]indazol-5-yl]methyl}-N-(2-hydroxyethyl)benezenesulfonamide] reads 3.6 nM; that for `C[C@]12Cc3cnn(-c4ccc(F)cc4)c3C=C1CC[C@@H]2CN(CCO)S(=O)(=O)c1ccc(Oc2cccc(Cl)c2C#N)cc1` [Example 69, 4-(3-chloro-2-cyanophenoxy)-N-{[(4αR,5S)-1-(4-fluorophenyl)-4α-methyl-1,4,4α,5,6,7-hexahydrocyclopenta[f]indazol-5-yl]methyl}-N-(2-hydroxyethyl)benzenesulfonamide], 8.7 nM; that for `C[C@]12Cc3cnn(-c4ccc(F)cc4)c3C=C1CC[C@@H]2CN(CCO)S(=O)(=O)c1ccccc1C(F)(F)F` [Example 70, N-{[(4αR,5S)-1-(4-fluorophenyl)-4α-methyl-1,4,4α,5,6,7-hexahydrocyclopenta[f]indazol-5-yl]methyl}-N-(2-hydroxyethyl)-2-(trifluoromethyl)benzenesulfonamide], 4.5 nM.
Turning to `Cc1noc(C)c1S(=O)(=O)N(CCO)C[C@H]1CCC2=Cc3c(cnn3-c3ccc(F)cc3)C[C@@]21C` [Example 71, N-{[(4αR,5S)-1-(4-fluorophenyl)-4α-methyl-1,4,4α,5,6,7-hexahydrocyclopenta[f]indazol-5-yl]methyl}-N-(2-hydroxyethyl)-3,5-dimethylisoxazole-4-sulfonamide], the Ki was found to be 5 nM.
In turn, `C[C@]12Cc3cnn(-c4ccc(F)cc4)c3C=C1CC[C@@H]2CN(CCO)S(=O)(=O)c1cc(F)cc(F)c1` [Example 72] showed a Ki of 1.4 nM. Against the preceding molecule, the Ki is about 3.6-fold lower.
Turning to `COC(=O)c1ccccc1S(=O)(=O)N(CCO)C[C@H]1CCC2=Cc3c(cnn3-c3ccc(F)cc3)C[C@@]21C` [Example 73, methyl 2-{[{[(4αR,5S)-1-(4-fluorophenyl)-4α-methyl-1,4,4α,5,6,7-hexahydrocyclopenta[f]indazol-5-yl]methyl}(2-hydroxyethyl)amino]sulfonyl}benzoate], the affinity, expressed as Ki, was 3.1 nM.
As to `C[C@]12Cc3cnn(-c4ccc(F)cc4)c3C=C1CC[C@@H]2CN(CCO)S(=O)(=O)c1ccc(Oc2ccccn2)cc1` [Example 74, N-{[(4αR,5S)-1-(4-fluorophenyl)-4α-methyl-1,4,4α,5,6,7-hexahydrocyclopenta[f]indazol-5-yl]methyl}-N-(2-hydroxyethyl)-4-(pyridin-2-yloxy)benzenesulfonamide], the Ki is 3 nM.
In the case of `C[C@]12Cc3cnn(-c4ccc(F)cc4)c3C=C1CC[C@@H]2CN(CCO)S(=O)(=O)Cc1ccccc1` [Example 75, N-{[(4αR,5S)-1-(4-fluorophenyl)-4α-methyl-1,4,4α,5,6,7-hexahydrocyclopenta[f]indazol-5-yl]methyl}-N-(2-hydroxyethyl)-1-phenylmethanesulfonamide], the Ki was determined as 2.5 nM.
In the case of `CNC(=O)Nc1ccc(S(=O)(=O)N(CCO)C[C@H]2CCC3=Cc4c(cnn4-c4ccc(F)cc4)C[C@@]32C)c(Cl)c1` [Example 76, 2-chloro-N-{[(4αR,5S)-1-(4-fluorophenyl)-4α-methyl-1,4,4α,5,6,7-hexahydrocyclopenta[f]indazol-5-yl]methyl}-N-(2-hydroxyethyl)-4-{[(methylamino)carbonyl]amino}-benzenesulfonamide], the Ki amounted to 7.7 nM. This Ki lies about 3.1-fold higher than the previous one.
The value for `Cc1ccccc1S(=O)(=O)N(CCO)C[C@H]1CCC2=Cc3c(cnn3-c3ccc(F)cc3)C[C@@]21C` [Example 77, N-{[(4αR,5S)-1-(4-fluorophenyl)-4α-methyl-1,4,4α,5,6,7-hexahydrocyclopenta[f]indazol-5-yl]methyl}-N-(2-hydroxyethyl)-2-methylbenzenesulfonamide] was 1.8 nM; that for `C[C@]12Cc3cnn(-c4ccc(F)cc4)c3C=C1CC[C@@H]2CN(CCO)S(=O)(=O)c1ccccc1C#N` [Example 78, 2-cyano-N-{[(4αR,5S)-1-(4-fluorophenyl)-4α-methyl-1,4,4α,5,6,7-hexahydrocyclopenta[f]indazol-5-yl]methyl}-N-(2-hydroxyethyl)benzenesulfonamide] was 2.3 nM.
The result for `C[C@]12Cc3cnn(-c4ccc(F)cc4)c3C=C1CC[C@@H]2CN(CCO)S(=O)(=O)c1ccc(Oc2ccccc2)cc1` [Example 79, N-{[(4αR,5S)-1-(4-fluorophenyl)-4α-methyl-1,4,4α,5,6,7-hexahydrocyclopenta[f]indazol-5-yl]methyl}-N-(2-hydroxyethyl)-4-phenoxybenzenesulfonamide] reads 4.8 nM; that for `C[C@]12Cc3cnn(-c4ccc(F)cc4)c3C=C1CC[C@@H]2CN(CCO)S(=O)(=O)c1cc(C(F)(F)F)ccc1Cl` [Example 80, 2-chloro-N-{[(4αR,5S)-1-(4-fluorophenyl)-4α-methyl-1,4,4α,5,6,7-hexahydrocyclopenta[f]indazol-5-yl]methyl}-N-(2-hydroxyethyl)-5-(trifluoromethyl)benzenesulfonamide], 13.7 nM.

As usually defined, the Ki is the dissociation constant of the complex between target and ligand, obtained from inhibition or displacement. A low value points to higher affinity.
